Assay results: PubChem BioAssay AID256 (DTP/NCI, 2004)
Where “and” joins values, the source holds several entries; their conditions need not be identical. Equal entries are not always repeated. Toxic doses and inconclusive results are not listed. Rule for the calls: active = survival T/C of 150% or more; inactive = T/C below 125% in these data.

Tested on: CD2F1 mice, L1210 leukemia ip, survival T/C
Test: NCI In Vivo Anticancer Drug Screen. Data for tumor model L1210 Leukemia (intraperitoneal) in CD2F1 (CDF1) mice
Details: higher = longer survival
In short: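 Compound-dosed mice with transplantable tumor versus matched vehicle controls; endpoint ratio T/C reported.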

Measured: T/C

NC(=O)c1csc(C2OC(CO)C(O)C2O)n1 (stereo not drawn)
active: endpoint: mean survival time, dose: 25.0 mg/kg/injection, schedule: Q01DX009 (ip), vehicle: water 158 % of control and 162 % of control | endpoint: mean survival time, dose: 50.0 mg/kg/injection, schedule: Q01DX005 (ip), vehicle: water 152 % of control | endpoint: mean survival time, dose: 50.0 mg/kg/injection, schedule: Q01DX009 (ip), vehicle: water 166 % of control and 167 % of control | endpoint: mean survival time, dose: 100.0 mg/kg/injection, schedule: Q01DX009 (ip), vehicle: saline 183 % of control | endpoint: mean survival time, dose: 100.0 mg/kg/injection, schedule: Q01DX009 (ip), vehicle: water 182 % of control | endpoint: mean survival time, dose: 150.0 mg/kg/injection, schedule: Q01DX005 (ip), vehicle: water 150 % of control | endpoint: mean survival time, dose: 200.0 mg/kg/injection, schedule: Q01DX009 (ip), vehicle: saline 182 % of control | endpoint: mean survival time, dose: 200.0 mg/kg/injection, schedule: Q01DX009 (ip), vehicle: water 203 % of control and 219 % of control | endpoint: mean survival time, dose: 300.0 mg/kg/injection, schedule: Q01DX005 (ip), vehicle: water 155 % of control | endpoint: mean survival time, dose: 400.0 mg/kg/injection, schedule: Q01DX005 (ip), vehicle: water 191 % of control and 192 % of control and 216 % of control | endpoint: mean survival time, dose: 400.0 mg/kg/injection, schedule: Q01DX009 (ip), vehicle: saline 224 % of control | endpoint: mean survival time, dose: 400.0 mg/kg/injection, schedule: Q01DX009 (ip), vehicle: water 200 % of control and 229 % of control | endpoint: mean survival time, dose: 600.0 mg/kg/injection, schedule: Q01DX009 (ip), vehicle: saline 230 % of control | endpoint: mean survival time, dose: 800.0 mg/kg/injection, schedule: Q01DX005 (ip), vehicle: water 206 % of control and 247 % of control | endpoint: mean survival time, dose: 800.0 mg/kg/injection, schedule: Q01DX009 (ip), vehicle: saline 171 % of control | endpoint: mean survival time, dose: 800.0 mg/kg/injection, schedule: Q01DX009 (ip), vehicle: water 185 % of control | endpoint: median survival time, dose: 4.0 mg/kg/injection, schedule: Q03HX024 (ip), vehicle: water 150 % of control | endpoint: median survival time, dose: 8.0 mg/kg/injection, schedule: Q03HX024 (ip), vehicle: water 186 % of control | endpoint: median survival time, dose: 16.0 mg/kg/injection, schedule: Q03HX024 (ip), vehicle: water 168 % of control | endpoint: median survival time, dose: 16.0 mg/kg/injection, schedule: Q#A X018 (ip), vehicle: water 174 % of control | endpoint: median survival time, dose: 32.0 mg/kg/injection, schedule: Q01DX005 (ip), vehicle: water 152 % of control | endpoint: median survival time, dose: 32.0 mg/kg/injection, schedule: Q01DX009 (ip), vehicle: water 159 % of control and 176 % of control | endpoint: median survival time, dose: 32.0 mg/kg/injection, schedule: Q01DX009 (oral), vehicle: water 163 % of control | endpoint: median survival time, dose: 32.0 mg/kg/injection, schedule: Q03HX024 (ip), vehicle: water 184 % of control | endpoint: median survival time, dose: 32.0 mg/kg/injection, schedule: Q#A X018 (ip), vehicle: water 195 % of control | endpoint: median survival time, dose: 64.0 mg/kg/injection, schedule: Q01DX005 (ip), vehicle: water 163 % of control | endpoint: median survival time, dose: 64.0 mg/kg/injection, schedule: Q01DX005 (iv), vehicle: water 151 % of control | endpoint: median survival time, dose: 64.0 mg/kg/injection, schedule: Q01DX005 (oral), vehicle: water 150 % of control | endpoint: median survival time, dose: 64.0 mg/kg/injection, schedule: Q01DX009 (oral), vehicle: water 188 % of control | endpoint: median survival time, dose: 64.0 mg/kg/injection, schedule: Q03HX024 (ip), vehicle: water 219 % of control | endpoint: median survival time, dose: 64.0 mg/kg/injection, schedule: Q#A X018 (ip), vehicle: water 210 % of control | endpoint: median survival time, dose: 125.0 mg/kg/injection, schedule: Q01DX005 (ip), vehicle: water 168 % of control | endpoint: median survival time, dose: 128.0 mg/kg/injection, schedule: Q01DX005 (ip), vehicle: water 164 % of control | endpoint: median survival time, dose: 128.0 mg/kg/injection, schedule: Q01DX005 (iv), vehicle: water 166 % of control | endpoint: median survival time, dose: 128.0 mg/kg/injection, schedule: Q01DX005 (oral), vehicle: water 163 % of control | endpoint: median survival time, dose: 128.0 mg/kg/injection, schedule: Q01DX009 (oral), vehicle: water 217 % of control | endpoint: median survival time, dose: 128.0 mg/kg/injection, schedule: Q03HX024 (ip), vehicle: water 231 % of control | endpoint: median survival time, dose: 128.0 mg/kg/injection, schedule: Q#A X018 (ip), vehicle: water 240 % of control | endpoint: median survival time, dose: 150.0 mg/kg/injection, schedule: Q01DX005 (ip), vehicle: water 157 % of control | endpoint: median survival time, dose: 250.0 mg/kg/injection, schedule: Q01DX005 (ip), vehicle: water 158 % of control and 179 % of control | endpoint: median survival time, dose: 256.0 mg/kg/injection, schedule: Q01DX005 (ip), vehicle: water 183 % of control | endpoint: median survival time, dose: 256.0 mg/kg/injection, schedule: Q01DX005 (iv), vehicle: water 190 % of control | endpoint: median survival time, dose: 256.0 mg/kg/injection, schedule: Q01DX005 (oral), vehicle: water 188 % of control | endpoint: median survival time, dose: 256.0 mg/kg/injection, schedule: Q01DX009 (oral), vehicle: water 227 % of control | endpoint: median survival time, dose: 256.0 mg/kg/injection, schedule: Q03HX024 (ip), vehicle: water 246 % of control | endpoint: median survival time, dose: 256.0 mg/kg/injection, schedule: Q#A X018 (ip), vehicle: water 252 % of control | endpoint: median survival time, dose: 300.0 mg/kg/injection, schedule: Q01DX005 (ip), vehicle: water 166 % of control | endpoint: median survival time, dose: 500.0 mg/kg/injection, schedule: Q01DX005 (ip), vehicle: water 175 % of control and 201 % of control | endpoint: median survival time, dose: 512.0 mg/kg/injection, schedule: Q01DX005 (ip), vehicle: water 190 % of control | endpoint: median survival time, dose: 512.0 mg/kg/injection, schedule: Q01DX005 (iv), vehicle: water 217 % of control | endpoint: median survival time, dose: 512.0 mg/kg/injection, schedule: Q01DX005 (oral), vehicle: water 195 % of control | endpoint: median survival time, dose: 512.0 mg/kg/injection, schedule: Q01DX009 (oral), vehicle: water 154 % of control | endpoint: median survival time, dose: 512.0 mg/kg/injection, schedule: Q03HX024 (ip), vehicle: water 284 % of control | endpoint: median survival time, dose: 512.0 mg/kg/injection, schedule: Q04DX003 (ip), vehicle: water 180 % of control | endpoint: median survival time, dose: 512.0 mg/kg/injection, schedule: Q#A X018 (ip), vehicle: water 269 % of control | endpoint: median survival time, dose: 600.0 mg/kg/injection, schedule: Q01DX005 (ip), vehicle: water 188 % of control | endpoint: median survival time, dose: 1000.0 mg/kg/injection, schedule: Q01DX005 (ip), vehicle: water 188 % of control and 191 % of control | endpoint: median survival time, dose: 1024.0 mg/kg/injection, schedule: Q01DX005 (ip), vehicle: water 205 % of control | endpoint: median survival time, dose: 1024.0 mg/kg/injection, schedule: Q01DX005 (iv), vehicle: water 226 % of control | endpoint: median survival time, dose: 1024.0 mg/kg/injection, schedule: Q01DX005 (oral), vehicle: water 213 % of control | endpoint: median survival time, dose: 1024.0 mg/kg/injection, schedule: Q04DX003 (ip), vehicle: water 191 % of control | endpoint: median survival time, dose: 2048.0 mg/kg/injection, schedule: Q01DX001 (oral), vehicle: water 155 % of control | endpoint: median survival time, dose: 2048.0 mg/kg/injection, schedule: Q04DX003 (ip), vehicle: water 223 % of control
inactive: endpoint: mean survival time, dose: 12.5 mg/kg/injection, schedule: Q01DX005 (ip), vehicle: water 111 % of control | endpoint: mean survival time, dose: 25.0 mg/kg/injection, schedule: Q01DX005 (ip), vehicle: water 120 % of control | endpoint: median survival time, dose: 16.0 mg/kg/injection, schedule: Q04DX003 (ip), vehicle: water 101 % of control | endpoint: median survival time, dose: 22.25 mg/kg/injection, schedule: Q01DX005 (ip), vehicle: water 97 % of control | endpoint: median survival time, dose: 23.44 mg/kg/injection, schedule: Q01DX005 (ip), vehicle: water 98 % of control | endpoint: median survival time, dose: 32.0 mg/kg/injection, schedule: Q01DX001 (iv), vehicle: water 117 % of control | endpoint: median survival time, dose: 32.0 mg/kg/injection, schedule: Q04DX003 (ip), vehicle: water 109 % of control | endpoint: median survival time, dose: 44.5 mg/kg/injection, schedule: Q01DX005 (ip), vehicle: water 102 % of control | endpoint: median survival time, dose: 64.0 mg/kg/injection, schedule: Q01DX001 (ip), vehicle: water 110 % of control | endpoint: median survival time, dose: 64.0 mg/kg/injection, schedule: Q01DX001 (iv), vehicle: water 120 % of control | endpoint: median survival time, dose: 64.0 mg/kg/injection, schedule: Q01DX001 (oral), vehicle: water 111 % of control | endpoint: median survival time, dose: 64.0 mg/kg/injection, schedule: Q04DX003 (ip), vehicle: water 114 % of control | endpoint: median survival time, dose: 89.0 mg/kg/injection, schedule: Q01DX005 (ip), vehicle: water 94 % of control | endpoint: median survival time, dose: 93.75 mg/kg/injection, schedule: Q01DX005 (ip), vehicle: water 101 % of control | endpoint: median survival time, dose: 128.0 mg/kg/injection, schedule: Q01DX001 (ip), vehicle: water 114 % of control | endpoint: median survival time, dose: 128.0 mg/kg/injection, schedule: Q01DX001 (oral), vehicle: water 123 % of control | endpoint: median survival time, dose: 128.0 mg/kg/injection, schedule: Q04DX003 (ip), vehicle: water 118 % of control | endpoint: median survival time, dose: 178.0 mg/kg/injection, schedule: Q01DX005 (ip), vehicle: water 98 % of control | endpoint: median survival time, dose: 256.0 mg/kg/injection, schedule: Q01DX001 (ip), vehicle: water 117 % of control | endpoint: median survival time, dose: 256.0 mg/kg/injection, schedule: Q01DX001 (oral), vehicle: water 122 % of control | endpoint: median survival time, dose: 356.0 mg/kg/injection, schedule: Q01DX005 (ip), vehicle: water 101 % of control | endpoint: median survival time, dose: 375.0 mg/kg/injection, schedule: Q01DX005 (ip), vehicle: water 92 % of control | endpoint: median survival time, dose: 1024.0 mg/kg/injection, schedule: Q01DX009 (oral), vehicle: water 110 % of control | endpoint: median survival time, dose: 2048.0 mg/kg/injection, schedule: Q01DX005 (oral), vehicle: water 98 % of control | endpoint: median survival time, dose: 2048.0 mg/kg/injection, schedule: Q01DX009 (ip), vehicle: water 109 % of control
